This is an account of results in patent publication US8835415B2, “Standardized composition, method of manufacture and use in the resolution of RNA virus infection” (priority 2009, dated 2014).

The test system of test [1] is HIV-1 (X4 tropic virus). Nature of the test: microbe, parasite or virus in culture. The test is classed as cell-based. Conditions: CXCR4 trophic virus, PBMC.
In test [2] the test system is HIV-1 (R5 tropic virus). The test is classed as cell-based. Conditions: CCR5 trophic virus, PBMC.
The subject of test [3] is Sheep Red Blood Cells (SRBCs). The test is classed as in vivo, Swiss albino mice. Conditions: Cyclophosphamide 25 mg/kg p.o alone. The protocol:
Swiss albino mice of either sex were divided into 5 groups with six animals per group based on the treatment they received.
On Day 0, all five groups were sensitized with Sheep Red Blood Cells (SRBCs) containing 1×10^8 cells in normal saline. […] On Day 7, blood samples were collected from each mouse in the five groups by retro orbital puncture for the determination of primary antibody titre. Subsequently on day 7, after the blood withdrawal, the mice were challenged with 0.1 ml of SRBCs into the foot pad. On Day 14, blood samples were collected from each mouse by retro orbital puncture for the determination of secondary antibody titre.

In test [4] the test system is H1N1 virus, Sensitive strain (676). Nature of the test: Plaque reduction assay in MDCK cells, H1N1 sensitive strain. The test is classed as cell-based. As to conditions: Influenza A virus, Tamiflu.

The compound `c1cc(CN2CCCNCCNCCCNCC2)ccc1CN1CCCNCCNCCCNCC1` [AMD3100] registered a concentration for a half-maximal effect (EC50) in test [1] (Human immunodeficiency virus 1) of 2.05 nM. Further, in test [2], the “inhibitory activity (in words)” value was “only against CXCR4 trophic virus”. Consider `Cc1cn([C@H]2C[C@H](N=[N+]=[N-])[C@@H](CO)O2)c(=O)[nH]c1=O` [AZT], for which the “inhibitory activity (in words)” value in test [1] and in test [2] was “exhibited inhibitory activity” each time. Take `O=P1(N(CCCl)CCCl)NCCCO1` (stereo not drawn) [Cyclophosphamide]: in test [3], the “PRIMARY HA TITRE ON DAY 7” value is reported as 0.33 and the “SECONDARY HA TITRE ON DAY 14” value worked out at 6.67. Consider `Cc1ccc(-c2ccc3c(c2)C=C(C(=O)Nc2ccc(C[N+](C)(C)C4CCOCC4)cc2)CCC3)cc1.[Cl-]` [Tak-779], for which the “inhibitory activity (in words)” value in test [1] is listed as “only against CCR5 trophic virus”. Further, in test [2], the EC50 was 0.56 nM.

Compound `CCOC(=O)C1=C[C@@H](OC(CC)CC)[C@H](NC(C)=O)[C@@H](N)C1` [Tamiflu, Oseltamivir] came in with an EC50 in test [4] of 4.5 nM. This counts as single-digit nanomolar.
